Tests used:
[1] = Briefly, various concentrations (1-to-3 series dilutions for 10 concentration levels from 40 μM with 0.5% final DMSO concentration) of hPXR agonist rifampicin, various concentrations of tested chemicals alone or combined with 5 μM of rifampicin, were added to the wells of white 384-well tissue culture-treated plates with 5,000 cells in 25 μl of phenol red-free DMEM supplemented with 5% charcoal/dextran-treated FBS and incubated for 24 h at 37° C. before luciferase assay using Steadylite HTS (PerkinElmer Life Sciences).; assay type: cell-based; conditions: HepG2

IC50: 0.79 µM
IC50 [1]: 3.1 µM
Structure (SMILES): COc1ccc(OC)c(-c2nc(C)c(C(=O)c3ccc(C(C)(C)C)cc3)n2C)c1
